Reference: patent publication EP4722216A1, “PYRROLOPYRIMIDINE DERIVATIVE AND USE THEREOF IN MEDICINE” (Kangbaida (Sichuan) Biotechnology Co., Ltd., priority 2023, dated 2024)

Assays:
[1] = molecular target: T1, FGFR2 (Homo sapiens, UniProt P21802); experiment: FGFR1-4 enzymology, HTRF method (FGFR2); format: biochemical; settings: FGFR2 0.08 nM, substrate (TK) 1 µM, ATP 20 µM
T1 construct: purchased Carna 08-134
Protocol: (§1) The inhibitory effects of compounds on the enzymatic activities of FGFR1, 2, 3, and 4 were detected by using HTRF method (PerkinElmer, 62TK0PEJ). 2× Enzyme and 2× substrate /ATP mixed solutions were prepared using a buffer solution. The final concentrations of FGFR1 enzyme (Cama, 08-133), the substrate (TK), and ATP were 0.10 nM, 1 µM, and 40 µM, respectively; the final concentrations of FGFR2 (Carna, 08-134), the substrate (TK), and ATP were 0.08 nM, 1 µM, and 20 µM, respectively; the final concentrations of FGFR3 (Cama, 08-135), the substrate (TK), and ATP were 0.30 nM, 1 µM, and 50 µM, respectively; and the final concentrations of FGFR4 (Carna, 08-136), the substrate (TK), and ATP were 10 nM, 1 µM, and 50 µM, respectively. The compound stock solution was diluted to 100× working concentration using DMSO. 50 nL/well of the compound was transferred to a 384-well plate using Echo, with 2 replicate wells per concentration. 2.5 µL/well of 2× kinase solution was added to reaction wells, mixed and incubated at 25°C for 10 min. 2.5 µL/well of 2× substrate/ATP solution was added to reaction wells and incubated at 25°C for 50 min. 2× Streptavidin-XL665/Cryptate-antibody mixed solution was prepared using a detection buffer solution (containing EDTA). 5 µL/well of a kinase detection reagent was added to the reaction wells and incubated at 25°C for 60 min. Fluorescence signals at 620 nm (Cryptate) and 665 nm (XL665) were read by a multifunctional microplate reader. IC50 (median inhibitory concentration) of the compound was calculated using the GraphPad nonlinear fitting formula, Y=Bottom + (Top-Bottom)/(1+10^((LogIC50-X) ×HillSlope)), in which X: the logarithmic value of the concentration of the compound; and Y: the inhibition rate of the compound (% inhibition).

[2] = molecular target: T2, FGFR3 (Homo sapiens, UniProt P22607); experiment: FGFR1-4 enzymology, HTRF method (FGFR3); format: biochemical; settings: FGFR3 0.30 nM, substrate (TK) 1 µM, ATP 50 µM
T2 construct: purchased Carna 08-135
T2 sequence (P22607 23-806): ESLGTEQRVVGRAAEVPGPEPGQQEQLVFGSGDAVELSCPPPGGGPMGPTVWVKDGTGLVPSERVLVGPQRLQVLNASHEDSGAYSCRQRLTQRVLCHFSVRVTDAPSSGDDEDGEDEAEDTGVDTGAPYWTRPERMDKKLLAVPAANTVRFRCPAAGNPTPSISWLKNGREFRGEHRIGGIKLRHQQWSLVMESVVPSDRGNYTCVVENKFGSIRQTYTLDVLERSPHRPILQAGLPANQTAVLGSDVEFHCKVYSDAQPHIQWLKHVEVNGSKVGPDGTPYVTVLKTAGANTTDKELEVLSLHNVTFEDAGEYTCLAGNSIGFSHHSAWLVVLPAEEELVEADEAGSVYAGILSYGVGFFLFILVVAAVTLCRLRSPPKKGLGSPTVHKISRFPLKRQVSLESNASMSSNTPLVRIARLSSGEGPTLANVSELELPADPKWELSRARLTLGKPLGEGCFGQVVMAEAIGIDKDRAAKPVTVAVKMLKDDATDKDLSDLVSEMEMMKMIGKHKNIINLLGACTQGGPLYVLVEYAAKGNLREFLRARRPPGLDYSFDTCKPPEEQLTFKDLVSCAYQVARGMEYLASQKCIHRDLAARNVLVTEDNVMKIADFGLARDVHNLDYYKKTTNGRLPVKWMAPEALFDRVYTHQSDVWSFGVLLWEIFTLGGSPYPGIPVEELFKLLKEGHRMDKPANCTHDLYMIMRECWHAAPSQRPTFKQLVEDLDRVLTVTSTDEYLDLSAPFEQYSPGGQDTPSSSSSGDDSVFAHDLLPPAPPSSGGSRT
Protocol: as §1

[3] = molecular target: T3, FGFR1 (Homo sapiens, UniProt P11362); experiment: FGFR1-4 enzymology, HTRF method (FGFR1); format: biochemical; settings: FGFR1 enzyme 0.10 nM, substrate (TK) 1 µM, ATP 40 µM
T3 construct: purchased Carna 08-133
T3 sequence (P11362 22-822): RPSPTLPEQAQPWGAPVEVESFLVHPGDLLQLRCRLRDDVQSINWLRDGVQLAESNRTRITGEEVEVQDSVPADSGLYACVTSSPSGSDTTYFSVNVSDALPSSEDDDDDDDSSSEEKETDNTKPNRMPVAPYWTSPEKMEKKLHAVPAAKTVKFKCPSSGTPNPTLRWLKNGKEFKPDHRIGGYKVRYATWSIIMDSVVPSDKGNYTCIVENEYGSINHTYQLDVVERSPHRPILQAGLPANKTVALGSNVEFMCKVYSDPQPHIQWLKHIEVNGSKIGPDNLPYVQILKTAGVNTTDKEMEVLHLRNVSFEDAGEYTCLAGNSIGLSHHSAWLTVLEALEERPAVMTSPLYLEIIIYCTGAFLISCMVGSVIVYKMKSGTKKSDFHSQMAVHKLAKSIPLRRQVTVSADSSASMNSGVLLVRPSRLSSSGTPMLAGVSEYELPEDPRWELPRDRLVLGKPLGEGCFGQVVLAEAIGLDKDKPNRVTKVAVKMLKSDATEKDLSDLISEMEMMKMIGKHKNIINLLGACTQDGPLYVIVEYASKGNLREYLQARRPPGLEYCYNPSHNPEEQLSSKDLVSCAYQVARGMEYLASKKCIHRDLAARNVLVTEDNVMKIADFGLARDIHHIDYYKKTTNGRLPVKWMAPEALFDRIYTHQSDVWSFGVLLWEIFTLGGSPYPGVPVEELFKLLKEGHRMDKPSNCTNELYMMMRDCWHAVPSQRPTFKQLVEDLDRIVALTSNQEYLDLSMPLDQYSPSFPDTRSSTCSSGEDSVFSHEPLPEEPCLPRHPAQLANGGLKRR
Protocol: as §1

[4] = molecular target: T4, FGFR4 (Homo sapiens, UniProt P22455); experiment: FGFR1-4 enzymology, HTRF method (FGFR4); format: biochemical; settings: FGFR4 10 nM, substrate (TK) 1 µM, ATP 50 µM
T4 construct: purchased Carna 08-136
T4 sequence (P22455 22-802): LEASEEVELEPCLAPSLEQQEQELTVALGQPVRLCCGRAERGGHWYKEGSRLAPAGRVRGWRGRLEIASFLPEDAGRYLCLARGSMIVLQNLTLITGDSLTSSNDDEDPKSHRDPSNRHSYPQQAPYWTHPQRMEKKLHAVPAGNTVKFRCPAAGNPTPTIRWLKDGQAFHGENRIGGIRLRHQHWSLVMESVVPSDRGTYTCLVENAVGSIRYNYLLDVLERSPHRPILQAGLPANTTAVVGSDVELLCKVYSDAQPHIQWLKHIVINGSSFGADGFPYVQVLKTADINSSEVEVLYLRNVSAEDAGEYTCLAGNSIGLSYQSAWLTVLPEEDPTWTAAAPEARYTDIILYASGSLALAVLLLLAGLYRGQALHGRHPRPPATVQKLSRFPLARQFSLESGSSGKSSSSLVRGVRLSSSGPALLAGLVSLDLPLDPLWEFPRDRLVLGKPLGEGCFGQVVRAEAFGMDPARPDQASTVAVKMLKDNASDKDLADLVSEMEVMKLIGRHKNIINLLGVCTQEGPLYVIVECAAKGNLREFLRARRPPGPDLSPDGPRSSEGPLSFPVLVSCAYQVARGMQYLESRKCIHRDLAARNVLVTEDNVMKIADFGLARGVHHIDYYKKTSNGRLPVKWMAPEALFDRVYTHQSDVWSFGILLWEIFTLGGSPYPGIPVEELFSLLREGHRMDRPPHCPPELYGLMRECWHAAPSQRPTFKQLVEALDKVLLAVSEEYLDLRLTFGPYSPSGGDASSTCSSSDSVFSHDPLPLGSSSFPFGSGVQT
Protocol: as §1

[5] = Pharmacokinetic study in rats in vivo; settings: SD rats; for F: intragastric 5 mg/kg versus intravenous 1 mg/kg; for AUC0-t / Cmax / half-life: male, rat, po, Plasma, intragastric administration 5 mg/kg
Protocol: An appropriate amount of the test substance was weighed and formulated into a 0.5 mg/mL transparent and clear solution using 10% DMSO + 5% HS-15 + 85% Saline for intravenous administration. The test substance was formulated into a 1 mg/mL uniform suspension using 10% DMSO + 5% HS-15 + 85% Saline for intragastric administration. 6 healthy male SD rats (Charles River, SPF grade) were taken, with 3 animals assigned to the intravenous group and three to the intragastric group, respectively. With 3 animals per time point, blood samples were collected via the jugular vein. Blood samples were collected at 5 min, 15 min, 0.5, 1, 2, 4, 8, and 24 h after intravenous administration of the test substance (1 mg/kg), and blood samples were collected at 15 min, 0.5, 1, 2, 4, 6, 8, and 24 h after intragastric administration of the test substance (5 mg/kg). After anticoagulation with EDTA-K2, the blood samples were centrifuged at 6000 g at 4°C for 5 min to separate plasma, and all plasma samples were stored at -70°C for testing. The drug concentration of the test substance in plasma was determined by LC-MS/MS method (with gliclazide as an internal standard), and the main pharmacokinetic parameters were calculated by Winnolin 8.3 non-compartment model. The intragastric administration results are as follows: […]

[6] = Pharmacokinetic study on mouse brain tissue (plasma/cerebrospinal fluid/brain tissue); format: in vivo; settings: ICR mice, intragastric administration 10 mg/kg; for Tmax / half-life: male, mouse, po
Protocol: An appropriate amount of the test substance was weighed and formulated into a 1 mg/mL transparent and clear solution using 10% DMSO + 5% HS-15 + 85% Saline for intragastric administration. 24 healthy male ICR mice (Charles River, SPF grade) were taken, with 3 animals per time point. Blood samples were collected at 15 min, 0.5, 1, 2, 4, 6, 8, and 24 h after intragastric administration of the test substance (10 mg/kg). The blood sample was anticoagulated with EDTA-K2 and then centrifuged at 6000 g at 4°C for 5 min to separate plasma. The plasma was stored at - 70°C for testing. After blood collection, the animal was sacrificed to collect cerebrospinal fluid, which was stored at -70°C for testing. The brain tissue was rinsed with ice-cold normal saline to remove the residual blood, blotted dry with absorbent paper, and then stored at -70°C for testing. The drug concentration of the specified compound in the plasma/cerebrospinal fluid/brain tissue was determined using LC-MS/MS method (with Gliclazide as an internal standard). The main pharmacokinetic parameters were calculated using a Winnolin 8.3 noncompartmental model.

[7] = molecular target: FGFR3 K650M (Homo sapiens, UniProt P22607, K650M); experiment: FGFR2 and FGFR3 mutant enzymology, HTRF method (FGFR3 K650M); format: biochemical; settings: kinase 0.10 nM, substrate 1 µM, ATP 12 µM
Sequence of FGFR3 K650M (P22607 23-806 K650M): as the sequence (P22607 23-806) above, with K628M counted along it
Protocol: (§2) The inhibitory effects of the compounds on the enzymatic activities of FGFR2 and FGFR3 mutants by using HTRF method (PerkinElmer, 62TK0PEJ). 2× Enzyme and 2× substrate /ATP mixed solutions were prepared using a buffer solution.
(§3) The compound stock solution was diluted to 100× working concentration using DMSO. 50 nL/well of the compound was transferred to a 384-well plate using Echo, with 2 replicate wells per concentration. 2.5 µL/well of 2× kinase solution was added to reaction wells, mixed and incubated at 25°C for 10 min. 2.5 µL/well of 2× substrate/ATP solution was added to reaction wells and incubated at 25°C for 50 min. 2× Streptavidin-XL665/Cryptate-antibody mixed solution was prepared using a detection buffer solution (containing EDTA). 5 µL/well of a kinase detection reagent was added to the reaction wells and incubated at 25°C for 60 min. Fluorescence signals at 620 nm (Cryptate) and 665 nm (XL665) were read by a multifunctional microplate reader. According to the test results, the inhibition rate was calculated. […] IC50 (median inhibitory concentration) of the compound was calculated using the GraphPad nonlinear fitting formula, Y = Bottom + (Top-Bottom)/(1+10^((LogIC50-X) ×HillSlope)), in which X: the logarithmic value of the concentration of the compound; and Y: the inhibition rate of the compound (% inhibition).

[8] = molecular target: FGFR2 V564F (Homo sapiens, UniProt P21802, V564F); experiment: FGFR2 and FGFR3 mutant enzymology, HTRF method (FGFR2 V564F); format: biochemical; settings: kinase 0.02 nM, substrate 1 µM, ATP 15 µM
Sequence of FGFR2 V564F (P21802 22-821 V564F): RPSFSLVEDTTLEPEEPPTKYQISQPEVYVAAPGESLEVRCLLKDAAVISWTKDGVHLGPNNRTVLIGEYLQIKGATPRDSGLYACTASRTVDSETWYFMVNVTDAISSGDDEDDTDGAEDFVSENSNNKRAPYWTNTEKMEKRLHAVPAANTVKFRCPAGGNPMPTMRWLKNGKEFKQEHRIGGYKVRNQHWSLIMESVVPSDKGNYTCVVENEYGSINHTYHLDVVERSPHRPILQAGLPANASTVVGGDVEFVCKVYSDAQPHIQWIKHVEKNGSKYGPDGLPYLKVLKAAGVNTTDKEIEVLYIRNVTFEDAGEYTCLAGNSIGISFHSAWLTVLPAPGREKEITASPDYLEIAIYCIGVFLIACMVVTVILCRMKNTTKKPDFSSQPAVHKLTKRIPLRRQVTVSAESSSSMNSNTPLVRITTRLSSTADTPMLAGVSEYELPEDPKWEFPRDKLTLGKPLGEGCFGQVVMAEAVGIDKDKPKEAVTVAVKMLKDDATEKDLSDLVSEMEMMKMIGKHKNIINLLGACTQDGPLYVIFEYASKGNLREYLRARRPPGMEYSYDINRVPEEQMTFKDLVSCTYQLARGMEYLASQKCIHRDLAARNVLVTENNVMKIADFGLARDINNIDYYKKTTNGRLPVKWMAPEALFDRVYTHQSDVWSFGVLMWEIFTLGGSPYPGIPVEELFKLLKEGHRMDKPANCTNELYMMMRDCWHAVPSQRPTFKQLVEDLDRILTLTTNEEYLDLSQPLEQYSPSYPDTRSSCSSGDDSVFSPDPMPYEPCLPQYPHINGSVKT
Protocol: as §2, §3

[9] = molecular target: FGFR2 N549H (Homo sapiens, UniProt P21802, N549H); experiment: FGFR2 and FGFR3 mutant enzymology, HTRF method (FGFR2 N549H); format: biochemical; settings: kinase 0.02 nM, substrate 1 µM, ATP 9 µM
Sequence of FGFR2 N549H (P21802 22-821 N549H): as the sequence (P21802 22-821 V564F) above, with N528H, F543V counted along it
Protocol: as §2, §3

[10] = molecular target: FGFR2 V564I (Homo sapiens, UniProt P21802, V564I); experiment: FGFR2 and FGFR3 mutant enzymology, HTRF method (FGFR2 V564I); format: biochemical; settings: kinase 0.03 nM, substrate 1 µM, ATP 20 µM
Sequence of FGFR2 V564I (P21802 22-821 V564I): as the sequence (P21802 22-821 V564F) above, with F543I counted along it
Protocol: as §2, §3

[11] = molecular target: FGFR3 V555M (Homo sapiens, UniProt P22607, V555M); experiment: FGFR2 and FGFR3 mutant enzymology, HTRF method (FGFR3 V555M); format: biochemical; settings: kinase 0.55 nM, substrate 1 µM, ATP 20 µM
Sequence of FGFR3 V555M (P22607 23-806 V555M): as the sequence (P22607 23-806) above, with V533M counted along it
Protocol: as §2, §3

T1 sequence (P21802 22-821): as the sequence (P21802 22-821 V564F) above, with F543V counted along it

IC50 [1]	IC50 [2]	IC50 [3]	IC50 [4]	F [5]	AUC0-t [5]	Cmax [5]	half-life [5]	AUC0-t ([6]; Brain tissue)	AUC0-t ([6]; Cerebrospinal fluid)	AUC0-t ([6]; Plasma)	Tmax ([6]; Brain tissue)	half-life ([6]; Brain tissue)	Tmax ([6]; Cerebrospinal fluid)	Tmax ([6]; Plasma)	half-life ([6]; Plasma)	Structure (SMILES)	further results
65.5 nM	> 1000 nM	> 1000 nM	> 1000 nM													C=C(C(=O)Nc1ccc(-c2c(-c3ccc(Oc4cccc(Cl)n4)c(F)c3)c3c(N)ncnc3n2C)cc1)C1CC1 [Compound 9, N-(4-(4-amino-5-(4-((6-chloropyridin-2-yl)oxy)-3-fluorophenyl)-7-methyl-7H-pyrrolo[2,3-d]pyrimidin-6-yl)phenyl)-2-cyclopropylacrylamide]	
23.8 nM	> 1000 nM	> 1000 nM	> 1000 nM	90.8%	3190 ng·h/mL	938 ng/mL	1.9 h	524 h*ng/mL or h*ng/g	59 h*ng/mL or h*ng/g	50857 h*ng/mL or h*ng/g	1 h	3 h	0.5 h	1 h	3.1 h	C=C(C(=O)Nc1ccc(-c2c(-c3ccc(Oc4nccc(C)n4)c(F)c3)c3c(N)ncnc3n2C)cc1)C1CC1 [Compound 1, N-(4-(4-amino-5-(3-fluoro-4-((4-methylpyrimidin-2-yl)oxy)phenyl)-7-methyl-7H-pyrrolo[2,3-d]pyrimidin-6-yl)phenyl]-2-cyclopropylacrylamide]	half-life ([6]; Cerebrospinal fluid): 6.3 h

Second part, the compound before the results:

Structure (SMILES)	IC50 [1]	IC50 [2]	IC50 [3]	IC50 [4]	F [5]	AUC0-t [5]	Cmax [5]	half-life [5]	AUC0-t ([6]; Brain tissue)	AUC0-t ([6]; Cerebrospinal fluid)	AUC0-t ([6]; Plasma)	Tmax ([6]; Brain tissue)	half-life ([6]; Brain tissue)	Tmax ([6]; Cerebrospinal fluid)	Tmax ([6]; Plasma)	half-life ([6]; Plasma)	further results
C=C(C(=O)Nc1ccc(-c2c(-c3ccc(Oc4nccc(C)n4)c(F)c3)c3c(N)ncnc3n2C)c(F)c1)C1CC1 [Compound 5, N-(4-(4-amino-5-(3-fluoro-4-((4-methylpyrimidin-2-yl)oxy)phenyl)-7-methyl-7H-pyrrolo[2,3-d]pyrimidin-6-yl)-3-fluorophenyl)-2-cyclopropylacrylamide]	7.3 nM	246 nM	550 nM	> 1000 nM													
C=C(C(=O)Nc1ccc(-c2c(-c3ccc(Oc4nccc(C)n4)c(F)c3)c3c(N)ncnc3n2C)cn1)C1CC1 [Compound 2, N-(5-(4-amino-5-(3-fluoro-4-((4-methylpyrimidin-2-yl)oxy)phenyl)-7-methyl-7H-pyrrolo[2,3-d]pyrimidin-6-yl)pyridin-2-yl]-2-cyclopropylacrylamide]	12 nM	149 nM	407 nM	> 1000 nM													
C=C(C(=O)Nc1ccc(-c2c(-c3ccc(Oc4nccc(C)n4)c(F)c3)c3c(N)ncnc3n2C)c(Cl)c1)C1CC1 [Compound 4, N-(4-(4-amino-5-(3-fluoro-4-((4-methylpyrimidin-2-yl)oxy)phenyl)-7-methyl-7H-pyrrolo[2,3-d]pyrimidin-6-yl)-3-chlorophenyl)-2-cyclopropylacrylamide]	1.7 nM	64.2 nM	165 nM	> 1000 nM	24.2%	787 ng·h/mL	273 ng/mL	0.9 h	277 h*ng/mL or h*ng/g	9 h*ng/mL or h*ng/g	21966 h*ng/mL or h*ng/g	1 h	1.7 h	1 h	0.5 h	1.8 h	IC50 [7]: 271 nM; IC50 [8]: 0.5 nM; IC50 [9]: 5.2 nM; IC50 [10]: 15 nM; IC50 [11]: 120 nM
